From patent publication US6822146B2, “Sulfonylurea-tolerant sunflower line M7” (priority 2000, dated 2004)

Legend:
[1] = tested on: Homozygous resistant inbred lines, BC3-M4M12 (I), BC3-M4M11 (J) and BC3-M4M7 (K); assay: Test A summary, homozygous resistant inbred lines; settings: in vivo
In short: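 Field-grown sunflower lines received broadcast post-emergence sulfonylurea herbicides at the 6-leaf stage, at European registered use rates, in four randomized replicates; all but metsulfuron-methyl included Citowet non-ionic surfactant at 0.25% v/v. Peak crop injury was scored visually as % phytotoxicity (0% none, 100% all plants destroyed).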

[2] = tested on: BC4-M5M12 × PHA155 hybrid; assay: Test E injury to sunflower hybrid; format: in vivo
Method: Based on the results from Test D, a modified protocol was developed to include three timings of post-emergence treatment. The hybrid BC4-M5M12 (female parent)×PHA155 restorer line (male parent) described in Test C was used in this test. Various herbicide programs were tested using three replications. […] Seed coatings of these formulated herbicides were applied to 6 kg of seeds in such amount that considering the distribution of the coated seeds in each pot, the herbicide active ingredient (a.i.) application rates per hectare were as indicated.
The treatments were applied similar to the methods described for Test D. Pre-emergence applications were broadcast only, not soil incorporated. For pre-emergence application, the pots were sprayed using the high rates of the herbicides two days after sowing the sunflower seeds. Post-emergence treatments were applied at the 4-6 leaf stage of sunflower (corresponding to early stage of Orobanche attachment; identified as “T1”), the 6-8 leaf stage of sunflower (corresponding to the mid stage of Orobanche attachment; nodules <5 mm diameter; identified as “T2”) and 8-12 leaf stage of sunflower (corresponding to late stage of Orobanche attachment; identified as “T3”). The mid-stage applications included the high as well as low application rates of each herbicide.
For comparison were also included in this test other acetolactate synthase-inhibiting herbicides reported in the literature as giving good weed control of Orobanche (L. García-Torres et al., Weed Research 1994, 34, 395-402; L. García-Torres et al., Weed Technology 1995, 9, 819-824; J. Hershenhorn et al., Weed Technology 1998, 12, 108-114).

Chenopodium album = assay: Test H weed control, field plots; format: in vivo; settings: 36 days after treatment; g a.i./ha: tribenuron-methyl 22.5, metsulfuron-methyl 6, ethametsulfuron-methyl 16, imazapyr isopropylamine salt 15, aclonifen 1200
Text: (§1) Field plots (2 m×5 m) were tilled to remove weed cover and then seeded in rows with the following weeds: Capsella bursa pastoris, Atriplex patula, Chenopodium album, Stellaria media, Mecurialis annua, Polygonum persicaria, Amaranthus retroflexus, Polygonum convolvulus, Polygonum aviculare, Viola arvensis, Matricaria inodora, Anagallis arvensis, Sinapis arvensis, Setaria viridis, Solanum nigrum and Echinochloa crusgalli. After 21 days from sowing, at which time the weeds had reached the 2- to 6-leaf stage, herbicide treatments were applied to the plots according to a complete randomized block design, with each herbicide treatment triply replicated. The herbicides were sprayed using standard flat fan nozzles moved perpendicular to the sown lines using water spray volumes of about 296 L/ha.
(§2) Assessments of weed control were made by visual inspection 36 days after herbicide treatment. A visual rating system was used based on a percentage scale from 0 to 100% compared to an adjacent untreated control plot. On this scale 0 represents no visual differences relative to an untreated control and 100 represents complete control of the given weed species.

Stellaria media = assay: Test H weed control, field plots; format: in vivo; settings: 36 days after treatment; g a.i./ha: tribenuron-methyl 22.5, metsulfuron-methyl 6, ethametsulfuron-methyl 16, imazapyr isopropylamine salt 15, aclonifen 1200
Text: as §1, §2

Amaranthus retroflexus = assay: Test H weed control, field plots; format: in vivo; design: concentration or dose not given beside the values; settings: 36 days after treatment; g a.i./ha: tribenuron-methyl 22.5, metsulfuron-methyl 6, ethametsulfuron-methyl 16, imazapyr isopropylamine salt 15, aclonifen 1200
Text: as §1, §2

Polygonum persicaria = assay: Test H weed control, field plots; format: in vivo; design: concentration or dose not given beside the values; settings: 36 days after treatment; g a.i./ha: tribenuron-methyl 22.5, metsulfuron-methyl 6, ethametsulfuron-methyl 16, imazapyr isopropylamine salt 15, aclonifen 1200
Text: as §1, §2

Anagallis arvensis = assay: Test H weed control, field plots; format: in vivo; design: concentration or dose not given beside the values; settings: 36 days after treatment; g a.i./ha: tribenuron-methyl 22.5, metsulfuron-methyl 6, ethametsulfuron-methyl 16, imazapyr isopropylamine salt 15, aclonifen 1200
Text: as §1, §2

Solanum nigrum = assay: Test H weed control, field plots; format: in vivo; design: concentration or dose not given beside the values; settings: 36 days after treatment; g a.i./ha: tribenuron-methyl 22.5, metsulfuron-methyl 6, ethametsulfuron-methyl 16, imazapyr isopropylamine salt 15, aclonifen 1200
Text: as §1, §2

Mercurialis annua = assay: Test H weed control, field plots; format: in vivo; design: concentration or dose not given beside the values; settings: 36 days after treatment; g a.i./ha: tribenuron-methyl 22.5, metsulfuron-methyl 6, ethametsulfuron-methyl 16, imazapyr isopropylamine salt 15, aclonifen 1200
Text: as §1, §2

Setaria viridis = assay: Test H weed control, field plots; format: in vivo; design: concentration or dose not given beside the values; settings: 36 days after treatment; g a.i./ha: tribenuron-methyl 22.5, metsulfuron-methyl 6, ethametsulfuron-methyl 16, imazapyr isopropylamine salt 15, aclonifen 1200
Text: as §1, §2

Polygonum aviculare = assay: Test H weed control, field plots; format: in vivo; design: concentration or dose not given beside the values; settings: 36 days after treatment; g a.i./ha: tribenuron-methyl 22.5, metsulfuron-methyl 6, ethametsulfuron-methyl 16, imazapyr isopropylamine salt 15, aclonifen 1200
Text: as §1, §2

Echinochloa crus-galli = assay: Test H weed control, field plots; format: in vivo; design: concentration or dose not given beside the values; settings: 36 days after treatment; g a.i./ha: tribenuron-methyl 22.5, metsulfuron-methyl 6, ethametsulfuron-methyl 16, imazapyr isopropylamine salt 15, aclonifen 1200
Text: as §1, §2

Sinapis arvensis = assay: Test H weed control, field plots; format: in vivo; design: concentration or dose not given beside the values; settings: 36 days after treatment; g a.i./ha: tribenuron-methyl 22.5, metsulfuron-methyl 6, ethametsulfuron-methyl 16, imazapyr isopropylamine salt 15, aclonifen 1200
Text: as §1, §2

Viola arvensis = assay: Test H weed control, field plots; format: in vivo; design: concentration or dose not given beside the values; settings: 36 days after treatment; g a.i./ha: tribenuron-methyl 22.5, metsulfuron-methyl 6, ethametsulfuron-methyl 16, imazapyr isopropylamine salt 15, aclonifen 1200
Text: as §1, §2

Matricaria inodora = assay: Test H weed control, field plots; format: in vivo; design: concentration or dose not given beside the values; settings: 36 days after treatment; g a.i./ha: tribenuron-methyl 22.5, metsulfuron-methyl 6, ethametsulfuron-methyl 16, imazapyr isopropylamine salt 15, aclonifen 1200
Text: as §1, §2

Atriplex patula = assay: Test H weed control, field plots; format: in vivo; design: concentration or dose not given beside the values; settings: 36 days after treatment; g a.i./ha: tribenuron-methyl 22.5, metsulfuron-methyl 6, ethametsulfuron-methyl 16, imazapyr isopropylamine salt 15, aclonifen 1200
Text: as §1, §2

Polygonum convolvulus = assay: Test H weed control, field plots; format: in vivo; design: concentration or dose not given beside the values; settings: 36 days after treatment; g a.i./ha: tribenuron-methyl 22.5, metsulfuron-methyl 6, ethametsulfuron-methyl 16, imazapyr isopropylamine salt 15, aclonifen 1200
Text: as §1, §2

Capsella bursa pastoris = assay: Test H weed control, field plots; format: in vivo; design: concentration or dose not given beside the values; settings: 36 days after treatment; g a.i./ha: tribenuron-methyl 22.5, metsulfuron-methyl 6, ethametsulfuron-methyl 16, imazapyr isopropylamine salt 15, aclonifen 1200
Text: as §1, §2

[3] = tested on: Weeds Agronomically Important in Sunflower Crops; assay: Test H summary; format: in vivo; settings: tribenuron-methyl 22.5 g a.i./ha, metsulfuron-methyl 6 g a.i./ha
Text: as §1, §2

[4] = tested on: heterozygous resistant hybrids (C to H); settings: in vivo
Method: In a small field trial, the sunflower varieties described in Table 4 were sprayed post-emergence with a variety of sulfonylurea herbicide treatments.
Broadcast post-emergence applications of formulated sulfonylurea herbicides were performed at the 6-leaf development stage using four randomly distributed replications. Application rates were chosen to match the usual use rates of these herbicides in the crops they are registered in Europe. All herbicides except for metsulfuron-methyl were sprayed in combination with Citowet® non-ionic ethoxylated alcohol at 0.25% volume of formulated product per volume of water applied per hectare.
The evaluation of the maximum (i.e. peak) injury to sunflower varieties by sulfonylurea herbicides was measured by visual ratings, which are listed in Table 5. A rating of 0% phytotoxicity means no crop injury. […] A rating of 100% means the complete destruction of all plants.

Row | SMILES | tolerance of homozygous resistant inbred lines I, J, K [1] | weed control, visual rating: Chenopodium album (Chenopodium album) | weed control, visual rating: Stellaria media (Stellaria media) | weed control, visual rating: Amaranthus retroflexus (Amaranthus retroflexus) | weed control, visual rating: Polygonum persicaria (Polygonum persicaria) | weed control, visual rating: Anagallis arvensis (Anagallis arvensis) | weed control, visual rating: Solanum nigrum (Solanum nigrum) | weed control, visual rating: Mercurialis annua (Mercurialis annua) | weed control, visual rating: Setaria viridis (Setaria viridis) | weed control, visual rating: Polygonum aviculare (Polygonum aviculare) | weed control, visual rating: Echinochloa crus-galli (Echinochloa crus-galli) | weed control, visual rating: Sinapis arvensis (Sinapis arvensis) | weed control, visual rating: Viola arvensis (Viola arvensis) | weed control, visual rating: Matricaria inodora (Matricaria inodora) | weed control, visual rating: Atriplex patula (Atriplex patula) | weed control, visual rating: Polygonum convolvulus (Polygonum convolvulus) | weed control, visual rating: Capsella bursa pastoris (Capsella bursa pastoris) | weed control spectrum [3] | tolerance of heterozygous resistant hybrids C to H [4] | also measured
1 | COC(=O)c1ccccc1S(=O)(=O)NC(=O)Nc1nc(C)nc(OC)n1 [Metsulfuron-methyl, metsulfuron-methyl] | resistant | 100% | 100% | 99% | 100% | 100% | 97% | 100% | 47% | 100% | 47% | 100% | 100% | 100% | 100% | 92% | 100% | excellent broad-spectrum weed control | as tolerant as the three homozygous resistant lines | sunflower phytotoxicity ([2]; in vivo): more likely to cause sunflower phytotoxicity
2 | COC(=O)c1ccccc1S(=O)(=O)NC(=O)N(C)c1nc(C)nc(OC)n1 [Tribenuron-methyl, tribenuron-methyl] | resistant | 100% | 100% | 93% | 100% | 100% | 100% | 100% | 65% | 90% | 65% | 100% | 100% | 100% | 100% | 93% | 100% | excellent broad-spectrum weed control | as tolerant as the three homozygous resistant lines | 
3 | COC(=O)c1cccc(C)c1S(=O)(=O)NC(=O)Nc1nc(OCC(F)(F)F)nc(N(C)C)n1 [Triflusulfuron-methyl, triflusulfuron-methyl] |  |  |  |  |  |  |  |  |  |  |  |  |  |  |  |  |  |  |  | sunflower phytotoxicity ([2]; Test E rates): transitory phytotoxicity symptoms; Injury ([2]; post-emergence 18.75 g a.i./ha at T2): 0%
